Data set [1] is described as follows: Elution/release of anaesthetic from DePuy bone cement discs (Example 2). The format is physicochemical. The conditions noted are these: for anaesthetic released over 72 hours, percentage of amount incorporated / anaesthetic released after 72 h, percentage of amount incorporated: discs in 0.2% saline, 37° C.; for effect of particle size on release profile: crystals 75 to 150 um, 150 to 250 um, >250 um, 72 hours. The source says: Crystalline lidocaine base from three manufacturers (Sigma, Spectrum, and Wyckoff) was used in these studies. It was observed that the relative proportions of crystals of different size varied substantially among the three brands. Thus, an initial study compared the effect of crystal size on elution and release characteristics using Spectrum lidocaine base. Crystals were sorted using a series of molecular sieves into three groups (small, 75 to 150 um; medium, 150 to 250 um; and large, >250 um) and 2.0 g samples from each group were incorporated into bone cement and tested, as indicated below.
All studies adhered to the following procedure: Forty grams of bone cement (DePuy CMW3 unless otherwise specified) were mixed with 2.0, 0.5, 0.05, or 0.005 g of liquid or crystalline anaesthetic (lidocaine: Sigma, Spectrum, Wyckoff; prilocaine: Colour Your Enzyme, Queen's University, Kingston, Ontario, Canada). The polymerization initiated mixtures were formed into discs 50 mm×1 mm and allowed to cure. The cured discs were then placed in a solution (100 ml) containing 0.2% saline, and kept at 37° C. in a shaking water bath. 1 ml aliquots were taken at 0, 1, 2, 3, 4, 6, 24, 48 and 72 hours and to each was added 1 μg/ml bupivacaine as an internal standard. 50 μl aliquots were subjected to HPLC using a Beckman reverse phase column having a mobile phase of 40 mM ammonium phosphate:acetonitrile (60:40) and a flow rate of 1 ml/min, followed by electrochemical detection, to determine the amount of anaesthetic in each sample.
The percentage of anaesthetic released was calculated from the mass of the bone cement/anaesthetic mixture: anaesthetic (e.g., 0.05 g)+bone cement powder (40 g)+bone cement liquid (17.9 g)=57.95 g. The mean mass of bone cement discs in an individual experiment was, for example, 3.75 g, which corresponds to 15.45 discs per mixture. For elution of, for example, 1000 ug after 72 hours, 1000 ug×15.45 discs=0.015 g anaesthetic released. Since 0.05 g anaesthetic was used, 30.9% was released.

For data set [2] the following is noted: lidocaine added to CMW3 vs CMW3.
Procedure: Lidocaine (Xylocaine, Astra Pharmaceuticals) was combined with DePuy CMW3 bone cement as described in Example 1, and mechanical properties including dough time, setting time, exotherm, compressive strength, flexural strength, flexural modulus, and impact strength were analyzed.
Data set [3] in a line: Elution of lidocaine from bone cement discs (Example 1). In kind it is physicochemical. The conditions noted are these: Zimmer or DePuy cement, 0.2% saline, 37° C. On the procedure:
Forty grams of bone cement powder from each of three manufacturers: Howmedica (Simplex), Zimmer (Osteobond) and DePuy (CMW3), were mixed with 0.5, 1.0 and 2.0 g of gas-sterilized crystalline lidocaine base (Xylocaine, Astra Pharmaceuticals). The polymerization initiated mixtures were formed into discs 50 mm×1 mm and allowed to harden. The hardened discs were then placed in a stirred solution (100 ml) containing 0.2% saline at 37° C. 100 μl aliquots were taken at 1, 2, 3, 4, 6, 24, 48 and 72 hours and subjected to HPLC with electrochemical detection analysis to determine the lidocaine level in each sample.

For data set [4] the following is noted: eluted from Howmedica bone cement; knee surgery of Example 3.
The mark [5] stands for this setting: 0.05 g anaesthetic per 40 g DePuy CMW3 bone cement, HCl.
Where [6] appears, read: 2.0 g anaesthetic per 40 g DePuy CMW Endurance bone cement.
The mark [7] stands for this setting: 0.5, 1.0, 2.0 g per 40 g Howmedica.

Counter-ions that a name gives are not always drawn. Some results are limits rather than exact numbers.

With `CCN(CC)CC(=O)Nc1c(C)cccc1C` [crystalline lidocaine HCl, lidocaine HCl], the “anaesthetic released over 72 hours, percentage of amount incorporated” value in data set [1] (setting [5]) was “about 25%”; in data set [1] (0.05 g anaesthetic per 40 g DePuy CMW3 bone cement, listed as lidocaine HCl, HCl) it was “about 25%”; in data set [1] (0.5 g anaesthetic per 40 g DePuy CMW3 bone cement), “about 33%”. Moreover, in data set [1] (0.5 g anaesthetic per 40 g DePuy CMW Endurance bone cement), the “anaesthetic released after 72 h, percentage of amount incorporated” value was 23%. The “effect of particle size on release profile” value in data set [1] (DePuy CMW3, HCl) is recorded as “Smaller particles eluted faster”.
Regarding `CCN(CC)CC(=O)Nc1c(C)cccc1C` [crystalline lidocaine base, lidocaine], the “anaesthetic released over 72 hours, percentage of amount incorporated” value in data set [1] (2.0 g anaesthetic per 40 g DePuy CMW3 bone cement) is recorded as “about 1%”. For the same molecule, the “anaesthetic released after 72 h, percentage of amount incorporated” value in data set [1] (setting [6]) was “about 0.3%”. In data set [1] (2.0 g sieved crystals, all size groups (75 to 150 um, 150 to 250 um, >250 um), DePuy CMW3), the “anaesthetic released over the 72 hour period, percentage of amount incorporated” value is given as “about 1%”. The “effect of particle size on release profile” value in data set [1] (DePuy CMW3) is “no effect of particle size”. For the same molecule, in data set [2], the “effect on compressive strength, flexural strength or flexural modulus” value is “little effect”; the “improvement of impact strength” value is “about 10%”; the “increase of cement setting time” value is “about 40%”; the “increase of doughing time, factor” value is given as 3. For the same molecule, in data set [3] (setting [7]), the “amount eluted in relation to amount in the mixture” value was “proportional to the amount of lidocaine in the mixture”, the “period of maximum rate of elution” value was “first 24 hours” and the “time of peak dose in elution curve” value is ~6 h. In data set [3] (test period, Howmedica), the “period of sustained release” value turned out to be 72 h. In data set [4], the “persistence of analgesic effect” value is listed as “at least 24 hours” and the “time from application of bone cement to analgesic effect” value was ≤ 6 h.
For `CCCNC(C)C(=O)Nc1ccccc1C` (centres unmarked) [crystalline prilocaine base, prilocaine], the “anaesthetic released after 72 h, percentage of amount incorporated” value in data set [1] (setting [6]) is “about 0.4%”.
As for `CCN(CC)CC(=O)Nc1c(C)cccc1C` [liquid lidocaine HCl, lidocaine HCl], in data set [1] (setting [5]), the “anaesthetic released over 72 hours, percentage of amount incorporated” value came out at 0.3%.
Take `CCCNC(C)C(=O)Nc1ccccc1C` (centres unmarked) [liquid prilocaine base, prilocaine]: the “anaesthetic released after 72 h, percentage of amount incorporated” value in data set [1] (setting [6]) was “about 0.3%”. Further, in data set [1] (2.0 g in DePuy CMW3, compared with crystalline prilocaine base and both forms of lidocaine base (FIG. 4)), the “initial release of anaesthetic” value was “greatest”.

The record behind these values is patent US6713527B2, “Anaesthetic bone cement” (Queen's University at Kingston, priority 1997, dated 2004).
